Calls of active or inactive are those of the source. The rule behind the calls is not given here.
Tested on: Staphylococcus aureus
Assay: Antibacterial activity against Staphylococcus aureus at 200 ug/disk by standard agar plate assay
Assay type: functional, organism-based

CC(CCCc1coc(CC(C)C(=O)O)c1)Cc1cc(CCCc2ccoc2)co1 (stereo unspecified)
Activity: Active

Reference: ChEMBL document CHEMBL1158307, “Hippospongins AF: New Furanoterpenes from a Southern Australian Marine Sponge Hippospongia sp” (J Nat Prod, 1996)
